Measurements: publication PMC11406361, “Several orphan solute carriers functionally identified as organic cation transporters: Substrates specificity compared with known cation transporters” (The Journal of Biological Chemistry, 2024)

Experiments:
SLC35E4 = target: T1, SLC35E4 (Homo sapiens, UniProt Q6ICL7); assay: Uptake ratio screen, SLC35E4-overexpressing HEK293 over empty vector cells; type: cell-based; set-up: by amplifying the entire gene-of-interest within the HEK293 genome via a long-range PCR; settings: 2.5 μM, 2 min
T1 sequence (Q6ICL7 1-350): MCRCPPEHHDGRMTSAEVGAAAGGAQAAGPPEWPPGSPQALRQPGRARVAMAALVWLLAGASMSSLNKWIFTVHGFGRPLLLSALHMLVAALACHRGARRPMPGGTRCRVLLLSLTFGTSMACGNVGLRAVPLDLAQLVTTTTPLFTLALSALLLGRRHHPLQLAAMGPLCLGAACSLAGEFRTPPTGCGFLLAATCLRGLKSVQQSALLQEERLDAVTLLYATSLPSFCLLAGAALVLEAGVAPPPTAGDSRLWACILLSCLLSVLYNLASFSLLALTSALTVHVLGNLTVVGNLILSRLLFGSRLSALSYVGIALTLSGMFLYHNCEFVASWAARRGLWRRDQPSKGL
Method: (§1) Typically discussed substrates of the proton organic-cation antiporter ([14]) are highlighted in dark green in Figure 1.
(§2) In preparation for transport experiments, 24-well plates were pre-coated with poly-D-lysine (Sigma-Aldrich) and 300,000 cells were plated per well and incubated for 48 h. Firstly, the 24-well plate was placed on a heating plate at 37 °C, and the cells were washed with 37 °C HBSS^+ buffer (Hank’s balanced salt solution supplemented with 10 mM Hepes and adjusted to pH 7.4; Thermo Fisher Scientific). The substance-of-interest, which was diluted in 37 °C HBSS^+ to a desired concentration, was added to the cells for exactly 2 min. […] The uptake was stopped with ice-cold HBSS^+, and the 24-well plate was removed from the heating plate. The cells were washed twice with the cold HBSS^+ before they were lysed for 15 min with 80% (v/v) acetonitrile containing the respective internal standard for mass spectrometry. For variations in seeded cell numbers between the cell lines, several wells were lysed in RIPA buffer and used for total protein quantification using a bicinchoninic assay ([74]) and bovine serum albumin as calibration.
(§3) The intracellular drug concentrations after transport experiments were analyzed by high-performance liquid chromatography coupled to tandem mass spectrometry analysis. The HPLC consisted of a Shimadzu Nexera HPLC System with a SIL-30AC autosampler, a LC-30AD pump, a CTO-20AC column oven, and a CBM-20A controller (Shimadzu). The reverse-phase chromatography of compounds was accomplished with a Brownlee SPP RP-Amide column with 4.6 × 100 mm inner dimensions, a particle size of 2.7 μm, and a preceding Phenomenex C-18 guard column. […] After separation, the detection of substances was performed with an API 4000 tandem mass spectrometer (AB SCIEX, https://sciex.com/support/software-support/software-downloads), followed by quantification of results with the Analyst software (AB SCIEX, version 1.6.2). […]
(§4) Transport-mediated net uptake was determined as fold-increase of transporter-overexpressing cells over empty vector–transfected control cells.

SLC5A7 = settings: read-out: KM of choline transport by SLC5A7; high-affinity choline transporter; ref [46]; cited from earlier work
SLC19A3 = target: T2, SLC19A3 (Homo sapiens, UniProt Q9BZV2); assay: Uptake ratio screen, SLC19A3-overexpressing HEK293 over empty vector cells; type: cell-based; settings: 2.5 μM, 2 min
T2 construct: expressed in transfected cells
Method: as §1
In preparation for transport experiments, 24-well plates were pre-coated with poly-D-lysine (Sigma-Aldrich) and 300,000 cells were plated per well and incubated for 48 h. Firstly, the 24-well plate was placed on a heating plate at 37 °C, and the cells were washed with 37 °C HBSS^+ buffer (Hank’s balanced salt solution supplemented with 10 mM Hepes and adjusted to pH 7.4; Thermo Fisher Scientific). The substance-of-interest, which was diluted in 37 °C HBSS^+ to a desired concentration, was added to the cells for exactly 2 min. […] For variations in seeded cell numbers between the cell lines, several wells were lysed in RIPA buffer and used for total protein quantification using a bicinchoninic assay ([74]) and bovine serum albumin as calibration.
The intracellular drug concentrations after transport experiments were analyzed by high-performance liquid chromatography coupled to tandem mass spectrometry analysis. […] After separation, the detection of substances was performed with an API 4000 tandem mass spectrometer (AB SCIEX, https://sciex.com/support/software-support/software-downloads), followed by quantification of results with the Analyst software (AB SCIEX, version 1.6.2). […]

SLC35F4 = target: T3, SLC35F4 (Homo sapiens, UniProt A4IF30); assay: Uptake ratio screen, SLC35F4-overexpressing HEK293 over empty vector cells; type: cell-based; set-up: by amplifying the entire gene-of-interest within the HEK293 genome via a long-range PCR; settings: 2.5 μM, 2 min
T3 sequence (A4IF30 1-521): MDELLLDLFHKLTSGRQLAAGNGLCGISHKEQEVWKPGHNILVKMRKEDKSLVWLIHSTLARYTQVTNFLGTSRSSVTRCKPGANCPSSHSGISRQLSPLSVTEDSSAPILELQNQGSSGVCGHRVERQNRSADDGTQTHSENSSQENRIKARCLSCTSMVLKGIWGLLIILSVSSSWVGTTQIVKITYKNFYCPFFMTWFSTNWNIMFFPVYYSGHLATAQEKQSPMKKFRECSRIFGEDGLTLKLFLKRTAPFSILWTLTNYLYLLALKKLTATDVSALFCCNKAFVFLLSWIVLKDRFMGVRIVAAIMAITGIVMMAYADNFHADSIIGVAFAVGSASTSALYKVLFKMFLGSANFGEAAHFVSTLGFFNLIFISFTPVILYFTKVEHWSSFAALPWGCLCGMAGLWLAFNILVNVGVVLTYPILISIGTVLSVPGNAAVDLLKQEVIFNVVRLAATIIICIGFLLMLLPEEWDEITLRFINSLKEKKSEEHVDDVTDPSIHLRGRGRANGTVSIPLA
Method: as §1, §2
The intracellular drug concentrations after transport experiments were analyzed by high-performance liquid chromatography coupled to tandem mass spectrometry analysis. The HPLC consisted of a Shimadzu Nexera HPLC System with a SIL-30AC autosampler, a LC-30AD pump, a CTO-20AC column oven, and a CBM-20A controller (Shimadzu). The reverse-phase chromatography of compounds was accomplished with a Brownlee SPP RP-Amide column with 4.6 × 100 mm inner dimensions, a particle size of 2.7 μm, and a preceding Phenomenex C-18 guard column. The mobile phase was composed of an organic additive with acetonitrile:methanol 6:1 (v/v) in total concentrations between 3% and 50% (v/v) and 0.1% (v/v) formic acid in the aqueous component of the eluent. During separation, the column oven was held at 40 °C and the mobile phase was maintained at a flow rate of 300 or 400 μl/min. After separation, the detection of substances was performed with an API 4000 tandem mass spectrometer (AB SCIEX, https://sciex.com/support/software-support/software-downloads), followed by quantification of results with the Analyst software (AB SCIEX, version 1.6.2). The composition of chromatographic conditions, as well as detailed mass spectrometric detection parameters, are listed in Table S5.
as §4

SLC19A2 = target: T4, SLC19A2 (Homo sapiens, UniProt O60779); assay: Uptake ratio screen, SLC19A2-overexpressing HEK293 over empty vector cells; type: cell-based; settings: 2.5 μM, 2 min
T4 construct: expressed in transfected cells
T4 sequence (O60779 1-497): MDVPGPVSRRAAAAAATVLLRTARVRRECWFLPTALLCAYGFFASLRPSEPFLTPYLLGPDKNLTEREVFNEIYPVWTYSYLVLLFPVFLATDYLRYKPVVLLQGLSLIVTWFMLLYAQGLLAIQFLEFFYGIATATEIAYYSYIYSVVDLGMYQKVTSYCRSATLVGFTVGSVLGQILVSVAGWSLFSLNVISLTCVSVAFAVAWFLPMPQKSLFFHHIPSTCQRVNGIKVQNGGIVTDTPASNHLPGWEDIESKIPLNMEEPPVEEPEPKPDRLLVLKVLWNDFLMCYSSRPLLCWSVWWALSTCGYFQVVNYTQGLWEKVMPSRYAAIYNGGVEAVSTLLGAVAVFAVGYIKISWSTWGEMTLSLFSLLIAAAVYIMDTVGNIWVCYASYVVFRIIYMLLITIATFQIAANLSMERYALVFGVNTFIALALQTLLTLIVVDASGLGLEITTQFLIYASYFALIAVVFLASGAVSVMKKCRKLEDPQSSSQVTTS
Method: as §1, §2, §3, §4

SLC35F3 = SLC35F3 (Homo sapiens, UniProt Q8IY50)
SLC44A1 = SLC44A1 (Homo sapiens, UniProt Q8WWI5)
Chain of SLC44A1 (Q8WWI5 whole entry): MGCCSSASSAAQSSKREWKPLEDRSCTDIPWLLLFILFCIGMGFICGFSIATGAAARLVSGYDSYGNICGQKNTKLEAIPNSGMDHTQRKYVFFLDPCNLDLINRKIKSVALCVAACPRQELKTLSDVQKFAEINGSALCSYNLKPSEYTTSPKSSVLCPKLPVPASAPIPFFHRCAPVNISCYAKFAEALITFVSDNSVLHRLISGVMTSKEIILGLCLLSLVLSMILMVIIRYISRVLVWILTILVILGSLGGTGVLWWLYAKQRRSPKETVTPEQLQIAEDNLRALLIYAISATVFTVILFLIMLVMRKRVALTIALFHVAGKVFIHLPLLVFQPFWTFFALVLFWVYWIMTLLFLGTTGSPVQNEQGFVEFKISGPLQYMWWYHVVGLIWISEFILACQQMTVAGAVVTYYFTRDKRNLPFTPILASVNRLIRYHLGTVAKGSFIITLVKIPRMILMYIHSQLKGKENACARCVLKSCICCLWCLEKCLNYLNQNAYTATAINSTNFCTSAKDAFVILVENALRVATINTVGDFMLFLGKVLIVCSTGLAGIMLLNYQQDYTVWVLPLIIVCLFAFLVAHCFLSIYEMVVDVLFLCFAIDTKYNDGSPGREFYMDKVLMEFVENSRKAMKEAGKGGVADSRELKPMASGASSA

T2 sequence (Q9BZV2 whole entry): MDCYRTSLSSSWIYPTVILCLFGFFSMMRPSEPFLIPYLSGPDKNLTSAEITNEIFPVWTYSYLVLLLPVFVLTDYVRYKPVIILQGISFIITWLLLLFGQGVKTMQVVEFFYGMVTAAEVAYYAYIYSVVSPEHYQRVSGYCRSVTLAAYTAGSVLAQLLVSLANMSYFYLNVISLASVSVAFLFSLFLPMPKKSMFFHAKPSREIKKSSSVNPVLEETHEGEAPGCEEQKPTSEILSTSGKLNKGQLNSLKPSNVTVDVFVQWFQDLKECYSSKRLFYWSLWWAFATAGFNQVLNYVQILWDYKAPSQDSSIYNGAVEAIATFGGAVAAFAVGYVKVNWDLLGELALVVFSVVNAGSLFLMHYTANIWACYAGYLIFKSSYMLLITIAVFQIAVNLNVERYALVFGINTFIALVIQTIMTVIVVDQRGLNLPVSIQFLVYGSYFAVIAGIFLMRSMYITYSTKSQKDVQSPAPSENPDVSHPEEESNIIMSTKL
Chain of SLC35F3 (Q8IY50 whole entry): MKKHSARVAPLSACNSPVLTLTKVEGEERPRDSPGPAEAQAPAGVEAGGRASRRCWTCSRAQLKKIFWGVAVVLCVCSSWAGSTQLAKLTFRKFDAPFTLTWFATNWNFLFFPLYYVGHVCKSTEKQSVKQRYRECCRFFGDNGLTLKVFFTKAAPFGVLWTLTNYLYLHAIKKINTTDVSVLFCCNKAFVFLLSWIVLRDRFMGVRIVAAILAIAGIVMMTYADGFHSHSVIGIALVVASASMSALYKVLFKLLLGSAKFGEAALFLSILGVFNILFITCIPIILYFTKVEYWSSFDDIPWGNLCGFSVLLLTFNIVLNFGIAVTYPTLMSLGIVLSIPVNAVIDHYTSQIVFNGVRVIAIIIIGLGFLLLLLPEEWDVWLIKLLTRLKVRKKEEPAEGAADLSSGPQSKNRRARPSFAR

C[N+](C)(C)CCO [Choline]
Uptake by SLC35E4 (in words) (SLC35E4): moderate influx transport activity
Km (SLC5A7): 2 µM
Uptake by SLC19A3 (in words) (SLC19A3): transports
Uptake by SLC35F4 (in words) (SLC35F4): enhanced cell uptake
Uptake by SLC19A2 (in words) (SLC19A2): enhance cell uptake
Clint (±SEM) (SLC35F3): 1.21 (±1.36) μl × mg protein^-1 × min^-1
Clint (±SEM) (SLC44A1): 2.08 (±1.79) μl × mg protein^-1 × min^-1
